# Assay results reported in patent US7985586B2, “Oligodendrocyte precursor cell composition and methods of use” (Georgia Health Sciences University, priority 2008, dated 2011).
# Entries after “also recorded” stand apart in the source; their conditions may differ.
# Columns and labels:
# [1] = cited from earlier work
# [2] = tested on: oligodendrocyte precursors (ODPCs) from EB-derived cells; assay: Generation of iODPCs from EB-derived cells treated with S18 and S1P or S1P analogs; format: cell-based, mouse; conditions: for effect on the number of ODPCs / ODPCs [% of total cells]: S1P 1 μM, VPC24191 or SEW2871 300 nM, FTY720 300 nM; for increase of the number of oligodendrocyte precursors (ODPCs): in vitro, combination with S18; for ODPCs [% of total cells]: in combination with S18, n=4 independent experiments
# Protocol: Pre-implantation blastocyst-derived ES cells (ES-J1, Rosa26, E14) were grown on γ-irradiated feeder fibroblasts, and neural differentiation was induced by serum deprivation of EBs as previously described. Attached EBs were dissociated and EB-derived cells (EBCs) plated on polyornithin/laminin-coated dishes. At this stage, cells were grown in DMEM/F12 supplemented with N2 and FGF-2 (EB medium). EBCs acquire all characteristics of genuine NPCs, including expression of nestin. Sox1, and FGFR1. In the presence of FGF-2, NPCs can be dissociated and propagated at >80% homogeneity.
# (§1) This protocol was modified using S18 or S1P (or its analogs) for incubation of differentiating ES cells at the EB stage prior to and after dissociation. After incubation with 50-100 μM S18 and/or 0.1-2 μM S1P or S1P analogs for 48 h, EBCs were dissociated and then immediately re-plated, and further incubated with NP medium supplemented with 50-100 μM S18 and 0.1-2 μM S1P or S1P analogs. NPCs were either transplanted into brain or spinal cord or in vitro differentiated in differentiation medium.
# For incubation with S18 and S1P (or S1P) analogs add: 50-100 μM S18; 0.1-2 μM S1P or S1P analogs (FTY720, SEW2871, VPC24191 or related compounds) to EB and NP medium. The incubation time can vary from 24-72 h.
# (§2) In vitro, treatment with a combination of S18 and S1P or S1P analogs (FTY720, VPC24191, SEW2871) increases the number of oligodendrocyte precursors (ODPCs) by about 20-fold (Table 1). […] This observation was unexpected and novel, because it has not been shown before that combined treatment with S18 and S1P analogs can enrich for ODPCs.
# EB-derived cells (EBCs) [3] = assay: S18-induced apoptosis / elimination of EB-derived cell sub-populations and protection by S1P analogs; format: cell-based, mouse; conditions: for protection of S18-sensitive NPCs (NPC2) from apoptosis: added to medium with S18
# Protocol: FIG. 4 illustrates making sphingolipid-enhanced neural stem cells (SENSe). FIG. 4A illustrates that mouse ES cells were differentiated to the attached EB stage and immunocytochemistry performed using antibodies against Oct-4 and S1P1. NPC2 cells show Oct-4(−) and S1P1(+). […] Expression of S1P1 protects them from S18-induced apoptosis if S1P or its analogs are added to the medium. FIG. 4B provides that there are three sub-populations of EB-derived cells (EBCs): 1) Residual pluripotent (Oct-4(+)/PAR-4(+)/S1P1(−) cells. […] They are not protected by S1P1; 2) NPC1 cells are Oct-4(−)/PAR-4(−)/S1P1(+) and represent nestin-expressing neural progenitors. […] FIG. 4C illustrates that NPC2 cells are stained for A2B5 epitope, a marker for oligodendrocyte precursor cells.
# as §1, §2
# EB-derived cells (EBCs) [4] = conditions: stage of forming NPCs; ref [5]; cited from earlier work
# primitive ectoderm cells = conditions: suspension EBs; ref [3]; cited from earlier work
SMILES,effect on the number of ODPCs [2],increase of the number of oligodendrocyte precursors (ODPCs) [2],ODPCs [% of total cells] ([2]; VPC23019 2 μM),also measured
"CCCCCCCCCCCCC/C=C/[C@@H](O)[C@H](CO)NC(C)=O [C2 ceramide, N-acetyl sphingosine]",,,,water solubility compared with physiological ceramide species (e.g. C16 ceramide) [1]: several-fold higher
"CCCCCCCCc1ccc(CCC(N)(CO)CO)cc1 [FTY720, 2-amino-2-[2-(4-octylphenyl)ethyl]propane-1,3-diol]",elevate the number of ODPCs,about 20 fold,,protection of S18-sensitive NPCs (NPC2) from apoptosis (EB-derived cells (EBCs) [3]): rescue S18-sensitive NPCs from apoptosis; also recorded: can be protected
"CCCCCCCCCCCCC/C=C/[C@@H](O)[C@@H](N)COP(=O)(O)O [S1P, sphingosine-1-phosphate]",elevate the number of ODPCs,about 20 fold,12 +/− 3%,protection of S18-sensitive NPCs (NPC2) from apoptosis (EB-derived cells (EBCs) [3]): rescue S18-sensitive NPCs from apoptosis; also recorded: can be protected
"CCCCCCCC/C=C\CCCCCCCC(=O)NC(CO)CO [S18, N-(2-hydroxy-1-(hydroxymethyl)ethyl)-oleoylamide]",,,,S18-induced apoptosis in NPC1 (Oct-4(−)/PAR-4(−)/S1P1(+)) cells (EB-derived cells (EBCs) [3]): do not undergo S18-induced apoptosis; elimination of teratoma-forming residual pluripotent (Oct-4(+)/PAR-4(+)/S1P1(−)) cells (EB-derived cells (EBCs) [3]; ES cell graft / EB-derived cells): specifically eliminate teratoma-forming cells; also recorded: are eliminated by S18; elimination of NPC2 (Oct-4(−)/PAR-4(+)/S1P1(+)) cells (EB-derived cells (EBCs) [3]; without S1P or FTY720): is also eliminated by S18; also recorded: are eliminated by S18; elimination of Oct-4(+) cells from differentiating ES cells (EB-derived cells (EBCs) [4]): eliminates Oct-4(+) cells; primitive ectoderm formation after ceramide depletion (primitive ectoderm cells): restores primitive ectoderm formation
FC(F)(F)c1cccc(-c2noc(-c3cc(-c4ccccc4)c(C(F)(F)F)s3)n2)c1 [SEW2871],elevate the number of ODPCs,about 20 fold,18 +/− 3%,
CCCCCCCCc1cccc(NC(=O)[C@H](N)COP(=O)(O)O)c1 [VPC23019],,,,effect of S1P1 antagonist on the S1P and FTY720 effect ([2]; VPC23019 2 μM): inhibits the effect of S1P and FTY720
CCCCCCCCc1ccc(NC[C@H](N)COP(=O)(O)O)cc1 [VPC24191],elevate the number of ODPCs,about 20 fold,28 +/− 5%,
